Source: US6992073B2, “Use of N-acetyl-D-glucosamine in the manufacture of a medicament for treating cervical erosion” (Third Military Medical University, Chinese People's …, priority 2002, dated 2006)

What was measured:
cervix erosion = assay: Clinic test in patients with cervix erosion; format: in vivo, human beings; conditions: treating group 83 cases, positive medicament control group 60 cases
Excerpt: A spray formulation of 2% N-acetyl-D-glucosamine was applied to human beings, up to the end of August 1999, there were 123 cases of patients to be observed in total.

[1] = in vivo
Excerpt: (§1) • 1. […] Experimental Results and Evaluation: • The experiment adopts a bio-wave model which is used to research the promoting wave function of the compound of formula (I). […] II. Toxicological Test of the Compound of Formula (I), including: • 1. acute toxicity test: including tests of administrating medicine by oral, Intravenous injection and maximum limit amount for administration; • 2. […] III. Test of Removing Pathogenic Microorganism by Resistance to Field Planting Action

Lactobacilli = assay: Liquid cultivation of Lactobacilli; format: cell-based
Excerpt: as §1

[2] = tested on: pathogenic microorganism such as Candida albicans, vagina Heamophilus; assay: Test of removing pathogenic microorganism by resistance to field planting action; format: cell-based; conditions: in situ bacterial field planting, qualitative and quantitative determination tests
Proteus Mirabilis = assay: Promoting wave test (bio-wave model on LB plate); format: cell-based
Excerpt: as §1

| SMILES | cured (number of cases) (cervix erosion) | effective (number of cases) (cervix erosion) | acute test dosage relative to the injection dosage for human being [1] [times] | growth of Lactobacilli (Lactobacilli) | effect on field planting growth of pathogenic microorganism [2] | sterilizing or bacteria-inhibiting effect [2] | promoting wave function (wave pattern of concentric rings) (Proteus Mirabilis) |
| --- | --- | --- | --- | --- | --- | --- | --- |
| O=[N+]([O-])[O-].[Ag+] [AgNO3] | 5 | 8 |  |  |  |  |  |
| CC(=O)N[C@@H]1[C@@H](O)[C@H](O)[C@@H](CO)O[C@H]1O [compound of formula (I), N-acetyl-D-glucosamine] |  |  | 300 | can improve the growth of Lactobacilli | disabling pathogenic microorganism such as Candida albicans, vagina Heamophilus and etc. from field planting growth | substantially has no sterilizing or bacteria-inhibiting effect | many fine waves on each ring emerged |
